For 84 compounds, melting point results are on record in a melting point compilation (Tetko et al.; mined from patent text by program, amines drawn as free bases though some values may be those of a salt).

The term melting point denotes the temperature, or range, at which the solid turns liquid. Take `N#CCCNC(=O)c1cccc(-c2ccc3c(c2)C(c2ccc(Cl)cc2Cl)CC3)c1` (centres undefined): the melting point fell in the range of 112 to 114 °C.

As to `CN(C)C1CCN(c2cccc(-c3cnc4[nH]cc(C(=O)C(C)(C)C)c4n3)c2)C1` (centres undefined), the melting point was 204 to 206 °C.

On to `NS(=O)(=O)c1cc(NC(=O)c2cnn3c(C(F)(F)F)cc(-c4ccc(C(F)(F)F)cc4)nc23)c(Cl)s1`, for which the melting point is 275 °C.

Compound `COc1ccc2sc(C(=O)NCCCCC(=O)O)c(OC(C)C)c2c1` had a melting point of 135 to 137 °C.

`CNC(=S)Nc1ccc(Cc2cc(C)c(C(=O)c3ccc(Cl)cc3)n2C)nc1`: the melting point was 135 °C.

For the compound `CC(OC(=O)c1ccccc1)C(N)=O` (centres undefined), the melting point is 116 to 117 °C.

`CC(C)C(NC(=O)OCc1ccccn1)C(=O)NC(Cc1ccccc1)C(O)C(O)C(Cc1ccccc1)NC(=O)OC(C)(C)C` (centres undefined) had a melting point of 202 to 204 °C.

Take `Cc1cc(O)nc(CCCCOc2nccc(NC(N)=NCC(F)(F)F)n2)n1`: the melting point lay in the range of 191 to 193 °C.

For the compound `COc1ccc(C2=NN(C3CCN(S(=O)(=O)Cc4ccccc4)CC3)C(=O)CC2)cc1OC`, the melting point was determined as 114 °C.

In turn, `COc1cc(NC=CS(=O)(=O)F)c(C(C)=O)cc1OC` registered a melting point of 142 to 146 °C.

`O=C(O)c1cc(-c2ccc3c(c2)CCO3)nn(Cc2ccc(F)cc2)c1=O` showed a melting point of 215 to 218 °C.

Compound `CC1(C)C(C=C(Cl)Cl)C1(C)C(=O)O` (centres undefined) had a melting point of 137 to 138 °C.

In the case of `C[Si](C)(C)Nc1ccn([Si](C)(C)C)c(=O)n1`, the melting point is 252 to 256 °C.

As for `COc1cccc(CN2CCN(C(=S)SC)CC2)c1OC`, the melting point lay in the range of 110 to 111 °C.

Turning to `CC(=O)c1ccc(-c2ccccc2F)cc1`, the melting point is 84.5 to 86.5 °C.

Take `CC(C)(C)OC(=O)CCc1ccnc(-c2nc(=O)c3ccc(Cl)cc3s2)c1`: the melting point is 152 °C.

`CC(=O)Oc1ccc(CC2CCCN2C)cc1OC(C)=O` (centres undefined) registered a melting point of 44 to 45 °C.

As to `CSC(=NCCSCc1cc2ccc(CN(C)C)cc2o1)NC#N`, the melting point lay within 98 to 100 °C.

As to `CCCCOC1c2ccccc2C(=O)N(CC2CC2)C1(/C=C/C(N)=O)CNC(=O)OC(C)(C)C` (centres undefined), the melting point fell in the range of 198 to 199 °C.

Compound `Cc1oc2c(Br)cc(C(CCOS(C)(=O)=O)CCOS(C)(=O)=O)cc2c1C` came in with a melting point of 154 to 156 °C.

As for `O=C(O)c1ccc(OCc2ccccc2OCc2ccccc2)cc1`, the melting point is 177 to 179 °C.

As to `COC(=O)C1=C(C)NC(c2scnc2C)=NC1c1ccc(F)cc1Cl` (centres undefined), the melting point lay within 145 to 147 °C.

With `CC(=O)C(C)(C)N1COC(C)=C(c2ccccc2)C1=O`, the melting point lay in the range of 118 to 119 °C.

As to `C=C(CCCCC)C(=O)c1ccc(OCC(=O)O)c(Cl)c1Cl`, the melting point lay in the range of 103 to 106 °C.

The compound `O=C(OCc1ccccc1)c1ccc(OC(=O)c2cccc(C(=O)Oc3ccc(C(=O)OCc4ccccc4)cc3)c2)cc1` yielded a melting point of 105 to 107 °C.

`Cc1occc1C(=O)N(O)C1CCCCC1` gave a melting point of 108 to 110 °C.

`CCCCNc1c2c(nc3c1cnn3CC)C(=O)c1ccccc1CC2` registered a melting point of 181 to 183 °C.

`CN1CC(=O)Nc2cccc(I)c2C1=O` displayed a melting point of 214 to 217 °C.

The compound `CCCN(C(=O)OC(C)(C)C)C1CC=C(c2c[nH]c3cc([N+](=O)[O-])ccc23)CC1` (centres undefined) displayed a melting point of 214 to 216 °C.

The compound `O=S(=O)(c1ccc(Cl)cc1)C(C/C=C\CO)c1cc(F)ccc1F` (centres undefined) came in with a melting point of 60 to 63 °C.

With `CC(C)(C)NC(=O)c1ccc(-c2ccc3nnn(Cc4ccc5ncccc5c4)c3n2)cc1F`, the melting point was in the range of 210 to 212 °C.

`CS(=O)(=O)c1ccc(-c2cccn2-c2ccc(F)c(Cl)c2)cc1`: the melting point is 146 to 149 °C.

In the case of `COC(=O)CCc1cccc(-c2ccccc2)c1`, the melting point lay within 29 to 30 °C.

For the compound `COc1ccc(C2CCN(c3c(C)c(C)c4c(c3C)C(O)(c3ccsc3)C(C)(C)O4)CC2)cc1OC` (centres undefined), the melting point lay within 125 to 128 °C.

As to `COc1ccc(CNc2nnc(N3CCC(CCO)CC3)c3ccc(Cl)cc23)cc1Cl`, the melting point was 153 to 155 °C.

The compound `CCOC(=O)c1ccc(C#CC(O)c2cc(C(C)(C)C)cc(C(C)(C)C)c2OCOC)cc1` (centres undefined) came in with a melting point of 89 to 91 °C.

Compound `CSc1ccc([N+](=O)[O-])c(C(=O)NCC2CCN(C(c3ccccc3)c3ccccc3)CC2)c1` displayed a melting point of 179 to 181 °C.

Take `CCOC(=O)c1c(CCl)nc2ccc(C)cc2c1-c1ccc(OC)c(OC)c1`: the melting point is 125 to 126 °C.

`CCOP(=O)(Cc1cc(C)c(O)c(C)c1)OCC` returned a melting point of 65 °C.

In the case of `COCN1C(C)=C(C(=O)OC)C(c2ccccc2)C(C(=O)OCOC(=O)C(C)(C)C)=C1C` (single isomer, unassigned; (+)), the melting point fell in the range of 80 to 81 °C.

For `Cc1cc(Cl)nn2c(-c3ccnc4c3ccn4S(=O)(=O)c3ccccc3)c(-c3ccc(F)cc3)nc12`, the melting point fell in the range of 226 to 228 °C.

`CCNC(=O)c1ccccc1Nc1nc(Nc2cc3c(cc2OC)CCN(CC(=O)NC)CC3)ncc1Cl` gave a melting point of 99 to 110 °C.

Compound `CC1Cc2cc3c(cc2C(c2ccc([N+](=O)[O-])cc2)=NN1c1nnn[nH]1)OCO3` (centres undefined) yielded a melting point of 263 to 264 °C.

`O=CC(=Cc1ccccc1OCc1ccc([N+](=O)[O-])cc1)C(C=O)=Cc1ccccc1OCc1ccc([N+](=O)[O-])cc1` gave a melting point of 116 to 117 °C.

In turn, `CNC(=O)c1cc(CN2C(=O)C3(COc4cc5c(cc43)OCO5)c3ccccc32)oc1C(F)(F)F` (centres undefined) came in with a melting point of 202 to 203 °C.

Compound `CCc1nc(C)cn1CC1CC2c3cccc4[nH]cc(c34)CC2N(C)C1` (centres undefined) came in with a melting point of 172 to 174 °C.

`Cc1c(-c2ccc(F)cc2)c(-c2ccccc2)nn1C(C)C` registered a melting point of 135 to 137 °C.

Turning to `CC(C)Oc1cc(O)c(C(=O)C=Cc2ccccc2OC(C)C)c(OC(C)C)c1`, the melting point lay within 119 to 120 °C.

`CCCCCCN(C[C@H]1CCC[C@H](CN(CCCCCC)C(=O)Nc2ccc(N(C)C)cc2)C1)C(=O)Nc1ccc(N(C)C)cc1` (relative stereo): the melting point was in the range of 121 to 125 °C.

In turn, `Cc1cc(Cl)c(-n2nc(C)n(C(F)F)c2=O)cc1OC(C)C(=O)O` (centres undefined) showed a melting point of 56 to 60 °C.

Compound `CC(NC=O)c1ccc(Nc2nccc(-c3cccnc3)n2)cc1` (centres undefined) gave a melting point of 118 to 121 °C.

Take `C=CCOC(=O)c1c(C)nc2[nH]c3ccccc3c2c1N`: the melting point was 220 to 222 °C.

On to `COC1(c2cccc(S(=O)(=O)c3ccc4c(c3)C(C)(C)C(=O)N4C)c2)CCOCC1`, for which the melting point fell in the range of 164 to 166 °C.

Turning to `CCCn1cc(C(=O)Nc2nccs2)c2ccc(Cl)cc21`, the melting point lay in the range of 175 to 176 °C.

Turning to `O=C(O)CCCNC(=O)c1ccccc1SSc1ccccc1C(=O)NCCCC(=O)O`, the melting point fell in the range of 165 to 166 °C.

The compound `CCN1CCN(c2ccnc3c(NC(=O)c4c(Cl)cccc4Cl)cccc23)C1=O` returned a melting point of 249 to 253 °C.

The compound `N#Cc1cc(F)c(Cl)c(Br)c1Cl` had a melting point of 110 to 112 °C.

As to `O=Cc1c2cccc(Cl)c2cc2c(Cl)cccc12`, the melting point was 218 to 220 °C.

`O=C(COc1cccc(Cl)c1)NCCO[N+](=O)[O-]` had a melting point of 62 to 64 °C.

As to `CC1(C)c2cc(C(=O)O)ccc2Oc2ncccc21`, the melting point was in the range of 241 to 242 °C.

In turn, `CCC1(CC)OC(c2ccc(S(C)(=O)=O)cc2)=CC1=O` had a melting point of 109 to 110 °C.

For the compound `COC1C=C(C)C(=O)CC(C)(C)C1OC(=O)c1ccc2nc[nH]c2c1` (centres undefined), the melting point fell in the range of 155 to 157 °C.

On to `CCCCCCCCCCCCCCCCCC(=O)Nc1cccc(N)c1`, for which the melting point is 98 to 102 °C.

Consider `NC(=O)c1cc(OCCCN2CCN(c3cccc4sccc34)CC2)c2ccccc2n1`, for which the melting point was 153 to 154 °C.

The compound `C[Si](C)(C)C#Cc1ccc2c(C(=O)Nc3cccc(C(F)(F)F)c3)cccc2c1` returned a melting point of 134 to 136 °C.

Take `Cc1cc(Oc2cccc(C(F)(F)F)c2)nn1C(=O)Nc1ccc(C(F)(F)F)cc1`: the melting point fell in the range of 82 to 84 °C.

The compound `COCC(C)n1nc(-c2c(-c3ccccc3)nn3ccc(OC)cc23)ccc1=O` (centres undefined) came in with a melting point of 138 to 139 °C.

The compound `NC(=O)c1ccc(NC(=O)c2ccccc2SSc2ccccc2C(=O)Nc2ccc(C(N)=O)cc2)cc1` showed a melting point of more than 270 °C.

In turn, `CC(=O)NCCOc1ccc2c(-c3ccccc3F)noc2c1Cl` showed a melting point of 154 to 155 °C.

With `CS(=O)(=O)Nc1cc2occ(C(=O)O)c(=O)c2cc1Oc1ccccc1`, the melting point was more than 250 °C.

Compound `COc1ccc(CCNc2nc(N)c3nc(-c4ccco4)oc3n2)cc1` gave a melting point of 194 to 196 °C.

`CC/C(=C(/C)C#N)c1cccc(O)c1` displayed a melting point of 80 to 83 °C.

As to `NNC(=O)NCCS(=O)(=O)O`, the melting point was 212 to 215 °C.

As for `C[C@]1(COc2ccc(N3CCC(OCc4ccc(C(F)(F)F)cc4)CC3)cc2)Cn2cc([N+](=O)[O-])nc2O1`, the melting point lay within 217 to 220 °C.

In turn, `O=C(O)Cc1ccc(NC(=O)C(COc2cccc(Cl)c2)NS(=O)(=O)c2ccc(Cl)cc2)cc1` (racemic) yielded a melting point of 220 to 221 °C.

In the case of `Cc1ccccc1OCCCc1oc(-n2ccnc2C)nc1-c1ccc(Cl)cc1`, the melting point lay within 111 to 112 °C.

`CC(C)CCCC(O)(Cn1cncn1)C(C)(C)C` (centres undefined) showed a melting point of 45 to 48 °C.

`CC(c1ccccc1)c1n[nH]c2c1c(=O)n(-c1cccc(C(F)(F)F)c1)c1ncccc21` (centres undefined) registered a melting point of 235 to 237 °C.

On to `COc1ccc(C)cc1NC(=O)Nc1ccc(N2CCN(Cc3ccccc3)CC2)cc1`, for which the melting point lay within 184 to 186 °C.

`CCCCCCOc1ccc2nc(-c3ccc(COC(CCCCCC)C(F)(F)F)cc3)sc2c1` (centres undefined) returned a melting point of 69.1 °C.

In the case of `COC(=O)c1ccc2ncc(C3CCN(C)CC3)c-2[nH]1`, the melting point lay within 200 to 201 °C.

The compound `CS(=O)(=O)Nc1ccc(C=O)cc1Oc1ccc(F)cc1F` registered a melting point of 156 to 157 °C.

For `Nc1nc(=O)n(C(=O)Oc2ccccc2)cc1F`, the melting point lay in the range of 175 to 180 °C.

Compound `Cc1c(C(F)(F)F)[nH]c(=O)n(-c2ccc(Br)cc2F)c1=O` displayed a melting point of 188 to 189 °C.
